Here are results for six molecules from patent publication US5298521A, “1,5-diphenyl-3-pyrazolylalkyl-N-hydroxydithiocaramates, compositions and use” (Ortho Pharmaceutical Corporation, priority 1993, dated 1994).

Experiment [1] deals with T1, RBL-1 cell cyclooxygenase (Rattus norvegicus, UniProt Q63921).
T1 construct: the supernatant was saved as the source of enzymes; endogenous in cells; host or cells: RBL-1 rat basophilic leukemia cells, homogenate supernatant
T1 sequence (Q63921 27-602): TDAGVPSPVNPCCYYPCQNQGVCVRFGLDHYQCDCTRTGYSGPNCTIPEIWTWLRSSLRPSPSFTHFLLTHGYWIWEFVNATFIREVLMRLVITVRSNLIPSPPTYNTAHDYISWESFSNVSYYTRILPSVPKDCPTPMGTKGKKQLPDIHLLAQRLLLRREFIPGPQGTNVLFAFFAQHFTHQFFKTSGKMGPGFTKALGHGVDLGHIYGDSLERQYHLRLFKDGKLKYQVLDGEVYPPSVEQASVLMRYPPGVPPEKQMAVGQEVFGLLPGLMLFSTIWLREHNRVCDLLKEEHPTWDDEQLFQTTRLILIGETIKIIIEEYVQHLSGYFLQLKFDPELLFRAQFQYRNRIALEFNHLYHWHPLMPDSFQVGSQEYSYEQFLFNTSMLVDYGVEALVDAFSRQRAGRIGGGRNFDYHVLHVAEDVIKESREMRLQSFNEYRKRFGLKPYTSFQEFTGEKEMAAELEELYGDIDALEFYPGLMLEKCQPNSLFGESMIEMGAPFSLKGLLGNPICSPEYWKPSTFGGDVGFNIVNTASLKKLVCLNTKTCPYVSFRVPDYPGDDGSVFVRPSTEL
Nature of the experiment: RBL-1 cell cyclooxygenase, cell homogenate supernatant (Procedure II). The format is biochemical. The conditions noted are these: RBL-1 homogenate; for inhibition at 3 µM: read-out: PROC. II % INHIBITION CO; for IC50: read-out: PROC. II IC50 CO. The protocol: RBL-1 cell 5-lipoxygenase and cyclooxygenase
Rat basophilic leukemia cells (RBL-1; 5×10^7 viable cells/mL) were disrupted by homogenization on ice (four 20 sec bursts) with a Brinkman polytron. Complete cell breakage was verified microscopically. The homogenate was then centrifuged at 10,000×g for 48 minutes at 4° C. The pellet was discarded and the supernatant was saved as the source of enzymes. The supernatant was pre-incubated for five minutes at 37° C. in the presence of 2 mM of CaCl2 and compound or vehicle (1% DMSO). The conversion of AA into 5-LO products was initiated by adding 10 μL (50 μCi) of 1-^14 C-AA to each tube and incubated at 37° C. for 20 minutes. The reaction was stopped by adjusting the pH of each sample to 3 to 3.5 with 2M formic acid. Samples were extracted with three volumes of chloroform to isolate the products of 5-LO formed during the reaction. Fractions were dried under nitrogen, then resuspended in 40 μL of chloroform and spotted onto silica gel HL plates. The plates were developed in A-9 solvent. The dried plates were analyzed using a Bioscan Imaging TLC scanner to determine the percentage of radiolabelled AA converted to 5-HETE in each sample.

In experiment [2] the target is T2, Sheep seminal vesicle cyclooxygenase (Ovis aries, UniProt P05979).
T2 construct: Sheep seminal vesicle (SSV) cyclooxygenase (95% pure); purchased Biomol (Plymouth Meeting, Pa.); host or cells: sheep seminal vesicle
T2 sequence (P05979 25-600): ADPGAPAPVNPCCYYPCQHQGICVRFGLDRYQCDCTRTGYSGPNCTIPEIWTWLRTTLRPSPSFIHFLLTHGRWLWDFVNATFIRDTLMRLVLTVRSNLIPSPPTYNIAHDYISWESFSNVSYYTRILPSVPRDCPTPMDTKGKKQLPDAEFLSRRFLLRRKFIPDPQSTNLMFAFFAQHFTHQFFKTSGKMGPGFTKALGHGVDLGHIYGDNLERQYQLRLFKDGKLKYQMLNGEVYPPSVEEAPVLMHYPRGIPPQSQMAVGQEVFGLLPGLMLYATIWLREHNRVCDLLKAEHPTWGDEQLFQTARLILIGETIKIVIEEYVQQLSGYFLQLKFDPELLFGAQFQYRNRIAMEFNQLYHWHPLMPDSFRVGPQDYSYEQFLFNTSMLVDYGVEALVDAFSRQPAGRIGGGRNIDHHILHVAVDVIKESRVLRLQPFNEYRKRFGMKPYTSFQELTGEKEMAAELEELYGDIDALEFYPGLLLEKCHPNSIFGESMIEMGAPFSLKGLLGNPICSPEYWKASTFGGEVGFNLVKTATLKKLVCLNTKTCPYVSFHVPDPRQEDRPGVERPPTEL
In words: Sheep seminal vesicle cyclooxygenase (Procedure I). Type of experiment: biochemical. The conditions noted are these: read-out: PROC. I % INHIB CO. On the procedure:
Sheep seminal vesicle cyclooxygenase Sheep seminal vesicle (SSV) cyclooxygenase (95% pure, prostaglandin endoperoxide synthase, EC 1.14.99.1 specific activity 24 units/mg protein) obtained as a lyophilized powder from Biomol (Plymouth Meeting, Pa.) was reconstituted at a concentration of 59 mg/mL in Hanks' Balanced Salt Solution (HBSS). The enzyme was divided into 200 μL aliquots, snap frozen with liquid N2, and stored at -70° C. unitl immediately prior to use. Measurements of CO activity were carried out in polypropylene tubes containing 495 μL of HBSS to which was added 5 μL of inhibitor or dimethylsulfoxide (DMSO; vehicle control) and 6 μL of SSV CO solution. The tubes were mixed on a vortex shaker, preincubated for 5 min at 37° C. prior to the initiation of the reaction. The reaction was started by the addition of [^14 C]-arachidonic acid (1-^14 C-AA, Amersham, Arlington Heights, Il) in 10 μL of methanol. Tubes were again vortexed and incubated in a water bath for 20 minutes after which the tubes were removed and the reaction stopped by acidification with the addition of 1 mL 2M formic acid. Lipophilic products were extracted with 3 mL chloroform and concentrated to dryness under N2. Each pellet was reconstituted with 40 μL of chloroform and spotted on a Whatman Silicon thin-layer chromatography plate and developed in a chromatography tank containing A-9 solvent (11:5:2:1 V:V:V:V, ethyl acetate:trimethylpentane:acetic acid:double distilled-H2 O). Radioactive cyclooxygenase products (prostaglandin D2, prostaglandin E2, etc.) were measured using a Bioscan System 200 Imaging Scanner. Inhibition of enzyme activity was calculated by comparing the areas under the curve produced in the presence or absence of test compound.

Each structure is given as a SMILES string.

With `COc1ccc(-n2nc(CSC(=S)N(O)C(C)C)cc2-c2ccc(Cl)cc2)cc1` [1-B], the inhibition at 3 µM in experiment [1] was 100%; in experiment [2], 39%. Besides, in experiment [1], the IC50 (in general, the concentration at which inhibition is half-maximal) stood at 8.07 µM.
On to `COc1ccc(-n2nc(CSC(=S)N(C)O)c(Cl)c2-c2ccc(Cl)cc2)cc1` [1-C], for which the inhibition at 3 µM in experiment [1] turned out to be 75%; in experiment [2], 46%.
Turning to `COc1ccc(-n2nc(CSC(=S)N(O)C(C)C)c(Cl)c2-c2ccc(Cl)cc2)cc1` [1-D], the figures for the inhibition at 3 µM in experiment [1] and in experiment [2] were 0% and 31%, respectively. The half-maximal inhibitory concentration (IC50) in experiment [1] amounted to 1.67 µM.
Turning to `COc1ccc(-n2nc(CSC(=S)N(O)C(C)C)c(Br)c2-c2ccc(Cl)cc2)cc1` [1-E], the inhibition at 3 µM in experiment [1] and in experiment [2] was 0% in each case. Moreover, the IC50 in experiment [1] turned out to be 1.96 µM.
For `COc1ccc(-n2nc(CSC(=S)N(O)C(C)C)cc2-c2ccc(C)cc2)cc1` [1-G], the inhibition at 3 µM in experiment [1] stood at 30%; in experiment [2], 36%. Further, the IC50 in experiment [1] was found to be 0.03 µM.
In the case of `COc1ccc(-n2nc(CSC(=S)N(C)O)c(Cl)c2-c2ccc(C)cc2)cc1` [1-H], the inhibition at 3 µM is 95% in experiment [1] and 39% in experiment [2].
